According to patent US8180580B2, “Method for identifying a compound that modulates SIR2 protein activity” (The Wistar Institute, priority 2007, dated 2012):

Experiments:
Sir2 = Sir2 (Saccharomyces cerevisiae, UniProt P53686); type: biochemical
Procedure: In parallel to the in silico screen, a solution screen for Sir2 effectors was carried out. A library containing about 10,000 Diversity Oriented Synthesis (DOS) compounds and natural product sub-libraries of compounds was screened using both yHst2 and hSIRT1 proteins.

Hst2 (residues 1-294) = Hst2 (residues 1-294) (Saccharomyces cerevisiae, UniProt P53686); experiment: biased in vitro screening assay for relief of nicotinamide inhibition (Fluor de Lys); type: biochemical; details: […] μM nicotinamide present
Chain of Hst2 (residues 1-294) (P53686 1-294): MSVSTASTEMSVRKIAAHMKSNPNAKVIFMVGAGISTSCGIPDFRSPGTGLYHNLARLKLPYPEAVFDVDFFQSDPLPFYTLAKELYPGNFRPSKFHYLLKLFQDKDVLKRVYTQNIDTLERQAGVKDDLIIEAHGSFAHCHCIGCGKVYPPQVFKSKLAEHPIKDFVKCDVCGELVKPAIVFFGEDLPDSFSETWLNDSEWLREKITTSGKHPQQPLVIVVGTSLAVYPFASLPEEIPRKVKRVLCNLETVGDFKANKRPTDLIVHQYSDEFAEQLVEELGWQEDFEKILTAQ
Procedure: This in vitro screen was carried out as follows.

Chain of Sir2 (P53686 1-294): as above

Molecule | IC50 (Sir2) | Fold Activation (Hst2 (residues 1-294))
O=C(O)CCN1Cc2ccccc2C1=O | 19.8 ± 1.1 µM | 
6-(4-Fluoro- phenyl)-2,3- diphenyl-1,5- dihydro- imidazo[1,2- α]imidazole |  | 2.9
CC1(C)CC(=O)C2=C(C1)NC1=C(C(=O)CC(C)(C)C1)C2c1cccc(F)c1 [9-(3-Fluoro-phenyl)-3,3,6,6-tetramethyl-2,4,6,7,9,10-hexahydro-2H,5H-acridine-1,8-dione] |  | 2.2
Zinc pyrithione [reference compound] | 1.8 ± 1.3 µM | 
